The numbers were not newly measured in patent publication US20030235609A1, “Use of cholinesterase antagonists to treat insulin resistance” (priority 2002, published 2003), which cites them from elsewhere.

The data set has as its system muscarinic receptor. The conditions noted are these: cats.

As to `COc1ccccc1CNCCCCCCNCCCCCCCCNCCCCCCNCc1ccccc1OC` [methoctramine], the “Dose required to produce a full insulin resistance” value (administered into the portal vein) was 10^−6 μmol/kg. In the case of `CN1CCN(CC(=O)N2c3ccccc3C(=O)Nc3cccnc32)CC1` [pirenzepine], the “Dose achieving a similar degree of insulin resistance” value was 10^7 mmol/kg.
